For the experiment, the system named is MCH receptors. Nature of the experiment: MCH receptor activity class (method not given). To be noted: class by percent of control at 10^−7 M or IC50.

Each structure is given as a SMILES string.

Consider `Cc1cnc(NC[C@H]2CC[C@@H](NC(=O)c3ccc(C(F)(F)F)c(F)c3)CC2)nc1N(C)C` [compound 2727], for which the class was 3 (Class 3 The value of percent of control at 10^−7 M was more than 60% or the value of IC50 was more than 200 nM.).

For the molecule `Cc1cnc(NC[C@H]2CC[C@@H](NC(=O)c3cc(Cl)cc(Cl)c3)CC2)nc1N(C)C` [compound 2728, 3,5-dichloro-N-[cis-4-({[4-(dimethylamino)-5-methylpyrimidin-2-yl]amino}methyl)cyclohexyl]benzamide], the class is on record as 2 (Class 2: The value of percent of control at 10^−7 M was from 40% to 60% or the value of IC′50 was from 50 nM to 200 nM.).

In the case of `Cc1cnc(NC[C@H]2CC[C@@H](NC(=O)c3ccc(Cl)c(Cl)c3)CC2)nc1N(C)C` [compound 2729, 3,4-dichloro-N-[cis-4-({[4-(dimethylamino)-5-methylpyrimidin-2-yl]amino}methyl)cyclohexyl]benzamide], the class was 3 (Class 3 The value of percent of control at 10^−7 M was more than 60% or the value of IC50 was more than 200 nM.).

On to `Cc1cnc(NC[C@H]2CC[C@@H](NC(=O)c3ccc4c(c3)OC(F)(F)O4)CC2)nc1N(C)C` [compound 2730], for which the class is given as 3 (Class 3 The value of percent of control at 10^−7 M was more than 60% or the value of IC50 was more than 200 nM.).

For `Cc1cnc(NC[C@H]2CC[C@@H](NC(=O)c3cc(C(F)(F)F)cc(C(F)(F)F)c3)CC2)nc1N(C)C` [compound 2731, N-[cis-4-({[4-(dimethylamino)-5-methylpyrimidin-2-yl]amino}methyl)cyclohexyl]-3,5-bis(trifluoromethyl)benzamide], the class is given as 2 (Class 2: The value of percent of control at 10^−7 M was from 40% to 60% or the value of IC′50 was from 50 nM to 200 nM.).

With `Cc1cc(N(C)C)nc(NC[C@H]2CC[C@@H](NC(=O)c3ccccc3)CC2)n1` [compound 2732, N-[cis-4-({[4-(dimethylamino)-6-methylpyrimidin-2-yl]amino}methyl)cyclohexyl]benzamide], the class is recorded as 3 (Class 3 The value of percent of control at 10^−7 M was more than 60% or the value of IC50 was more than 200 nM.).

For the molecule `Cc1ccc(C(=O)N[C@H]2CC[C@@H](CNc3nc(C)cc(N(C)C)n3)CC2)cc1` [compound 2733], the class is listed as 3 (Class 3 The value of percent of control at 10^−7 M was more than 60% or the value of IC50 was more than 200 nM.).

As for `Cc1cc(N(C)C)nc(NC[C@H]2CC[C@@H](NC(=O)c3ccc(F)c(F)c3)CC2)n1` [compound 2734, N-[cis-4-({[4-(dimethylamino)-6-methylpyrimidin-2-yl]amino}methyl)cyclohexyl]-3,4-difluorobenzamide], the class is given as 3 (Class 3 The value of percent of control at 10^−7 M was more than 60% or the value of IC50 was more than 200 nM.).

On to `COc1ccc(C(=O)N[C@H]2CC[C@@H](CNc3nc(C)cc(N(C)C)n3)CC2)cc1` [compound 2735], for which the class was 3 (Class 3 The value of percent of control at 10^−7 M was more than 60% or the value of IC50 was more than 200 nM.).

`COc1cc(OC)cc(C(=O)N[C@H]2CC[C@@H](CNc3nc(C)cc(N(C)C)n3)CC2)c1` [compound 2736]: the class is given as 3 (Class 3 The value of percent of control at 10^−7 M was more than 60% or the value of IC50 was more than 200 nM.).

Turning to `Cc1cc(N(C)C)nc(NC[C@H]2CC[C@@H](NC(=O)c3ccc(C)c(F)c3)CC2)n1` [compound 2737], the class was 3 (Class 3 The value of percent of control at 10^−7 M was more than 60% or the value of IC50 was more than 200 nM.).

As for `Cc1cc(N(C)C)nc(NC[C@H]2CC[C@@H](NC(=O)c3ccc(F)c(C)c3)CC2)n1` [compound 2738], the class is 3 (Class 3 The value of percent of control at 10^−7 M was more than 60% or the value of IC50 was more than 200 nM.).

Consider `Cc1cc(N(C)C)nc(NC[C@H]2CC[C@@H](NC(=O)c3cccc(C(F)(F)F)c3)CC2)n1` [compound 2739], for which the class is 3 (Class 3 The value of percent of control at 10^−7 M was more than 60% or the value of IC50 was more than 200 nM.).

For `Cc1cc(N(C)C)nc(NC[C@H]2CC[C@@H](NC(=O)c3ccc(C(F)(F)F)cc3)CC2)n1` [compound 2740], the class was 3 (Class 3 The value of percent of control at 10^−7 M was more than 60% or the value of IC50 was more than 200 nM.).

Turning to `Cc1cc(N(C)C)nc(NC[C@H]2CC[C@@H](NC(=O)c3cccc(OC(F)(F)F)c3)CC2)n1` [compound 2741], the class is reported as 3 (Class 3 The value of percent of control at 10^−7 M was more than 60% or the value of IC50 was more than 200 nM.).

As to `Cc1cc(N(C)C)nc(NC[C@H]2CC[C@@H](NC(=O)c3ccc(OC(F)(F)F)cc3)CC2)n1` [compound 2742], the class is listed as 3 (Class 3 The value of percent of control at 10^−7 M was more than 60% or the value of IC50 was more than 200 nM.).

As for `Cc1cc(N(C)C)nc(NC[C@H]2CC[C@@H](NC(=O)c3ccc(C#N)cc3)CC2)n1` [compound 2743], the class was 3 (Class 3 The value of percent of control at 10^−7 M was more than 60% or the value of IC50 was more than 200 nM.).

As for `Cc1cc(N(C)C)nc(NC[C@H]2CC[C@@H](NC(=O)c3ccc(Br)cc3)CC2)n1` [compound 2744, 4-bromo-N-[cis-4-({[4-(dimethylamino)-6-methylpyrimidin-2-yl]amino}methyl)cyclohexyl]benzamide], the class is listed as 2 (Class 2: The value of percent of control at 10^−7 M was from 40% to 60% or the value of IC′50 was from 50 nM to 200 nM.).

With `Cc1cc(N(C)C)nc(NC[C@H]2CC[C@@H](NC(=O)c3ccc(Br)c(C)c3)CC2)n1` [compound 2745, 4-bromo-N-[cis-4-({[4-(dimethylamino)-6-methylpyrimidin-2-yl]amino}methyl)cyclohexyl]-3-methylbenzamide], the class is given as 2 (Class 2: The value of percent of control at 10^−7 M was from 40% to 60% or the value of IC′50 was from 50 nM to 200 nM.).

As to `Cc1cc(N(C)C)nc(NC[C@H]2CC[C@@H](NC(=O)c3ccc(F)c(Cl)c3)CC2)n1` [compound 2746], the class is 3 (Class 3 The value of percent of control at 10^−7 M was more than 60% or the value of IC50 was more than 200 nM.).

Take `Cc1cc(N(C)C)nc(NC[C@H]2CC[C@@H](NC(=O)c3ccc(C(F)(F)F)c(F)c3)CC2)n1` [compound 2747]: the class was 3 (Class 3 The value of percent of control at 10^−7 M was more than 60% or the value of IC50 was more than 200 nM.).

Take `Cc1cc(N(C)C)nc(NC[C@H]2CC[C@@H](NC(=O)c3cc(Cl)cc(Cl)c3)CC2)n1` [compound 2748]: the class is recorded as 2 (Class 2: The value of percent of control at 10^−7 M was from 40% to 60% or the value of IC′50 was from 50 nM to 200 nM.).

Turning to `Cc1cc(N(C)C)nc(NC[C@H]2CC[C@@H](NC(=O)c3ccc(Cl)c(Cl)c3)CC2)n1` [compound 2749], the class is on record as 2 (Class 2: The value of percent of control at 10^−7 M was from 40% to 60% or the value of IC′50 was from 50 nM to 200 nM.).

`Cc1cc(N(C)C)nc(NC[C@H]2CC[C@@H](NC(=O)c3ccc4c(c3)OC(F)(F)O4)CC2)n1` [compound 2750]: the class is 3 (Class 3 The value of percent of control at 10^−7 M was more than 60% or the value of IC50 was more than 200 nM.).

Turning to `Cc1cc(N(C)C)nc(N[C@H]2CC[C@@H](CNC(=O)c3ccccc3)CC2)n1` [compound 2751, N-[(cis-4-{[4-(dimethylamino)-6-methylpyrimidin-2-yl]amino}cyclohexyl)methyl]benzamide], the class was 3 (Class 3 The value of percent of control at 10^−7 M was more than 60% or the value of IC50 was more than 200 nM.).

On to `Cc1ccc(C(=O)NC[C@H]2CC[C@@H](Nc3nc(C)cc(N(C)C)n3)CC2)cc1` [compound 2752], for which the class was 3 (Class 3 The value of percent of control at 10^−7 M was more than 60% or the value of IC50 was more than 200 nM.).

In the case of `Cc1cc(N(C)C)nc(N[C@H]2CC[C@@H](CNC(=O)c3ccc(F)c(F)c3)CC2)n1` [compound 2753, N-[(cis-4-{[4-(dimethylamino)-6-methylpyrimidin-2-yl]amino}cyclohexyl)methyl]-3,4-difluorobenzamide], the class is reported as 3 (Class 3 The value of percent of control at 10^−7 M was more than 60% or the value of IC50 was more than 200 nM.).

On to `COc1ccc(C(=O)NC[C@H]2CC[C@@H](Nc3nc(C)cc(N(C)C)n3)CC2)cc1` [compound 2754], for which the class is 3 (Class 3 The value of percent of control at 10^−7 M was more than 60% or the value of IC50 was more than 200 nM.).

`Cc1cc(N(C)C)nc(N[C@H]2CC[C@@H](CNC(=O)c3ccc(C)c(F)c3)CC2)n1` [compound 2755]: the class is reported as 2 (Class 2: The value of percent of control at 10^−7 M was from 40% to 60% or the value of IC′50 was from 50 nM to 200 nM.).

As for `Cc1cc(N(C)C)nc(N[C@H]2CC[C@@H](CNC(=O)c3ccc(F)c(C)c3)CC2)n1` [compound 2756], the class is on record as 3 (Class 3 The value of percent of control at 10^−7 M was more than 60% or the value of IC50 was more than 200 nM.).

`Cc1cc(N(C)C)nc(N[C@H]2CC[C@@H](CNC(=O)c3cccc(C(F)(F)F)c3)CC2)n1` [compound 2757]: the class was 3 (Class 3 The value of percent of control at 10^−7 M was more than 60% or the value of IC50 was more than 200 nM.).

As to `Cc1cc(N(C)C)nc(N[C@H]2CC[C@@H](CNC(=O)c3ccc(C(F)(F)F)cc3)CC2)n1` [compound 2758], the class is recorded as 2 (Class 2: The value of percent of control at 10^−7 M was from 40% to 60% or the value of IC′50 was from 50 nM to 200 nM.).

Regarding `Cc1cc(N(C)C)nc(N[C@H]2CC[C@@H](CNC(=O)c3cccc(OC(F)(F)F)c3)CC2)n1` [compound 2759], the class was 3 (Class 3 The value of percent of control at 10^−7 M was more than 60% or the value of IC50 was more than 200 nM.).

`Cc1cc(N(C)C)nc(N[C@H]2CC[C@@H](CNC(=O)c3ccc(OC(F)(F)F)cc3)CC2)n1` [compound 2760]: the class was 3 (Class 3 The value of percent of control at 10^−7 M was more than 60% or the value of IC50 was more than 200 nM.).

Turning to `Cc1cc(N(C)C)nc(N[C@H]2CC[C@@H](CNC(=O)c3ccc(C#N)cc3)CC2)n1` [compound 2761], the class was 3 (Class 3 The value of percent of control at 10^−7 M was more than 60% or the value of IC50 was more than 200 nM.).

For the origin of these results see patent publication US20050197350A1, “Novel quinoline, tetrahydroquinazoline, and pyrimidine derivatives and methods of treatment related to the use thereof” (TAISHO PHARMACEUTICAL CO., LTD., priority 2003, published 2005).
